In this experiment the target is T1, SOS1 (Homo sapiens, UniProt Q07889).
T1 sequence (Q07889 1-1333): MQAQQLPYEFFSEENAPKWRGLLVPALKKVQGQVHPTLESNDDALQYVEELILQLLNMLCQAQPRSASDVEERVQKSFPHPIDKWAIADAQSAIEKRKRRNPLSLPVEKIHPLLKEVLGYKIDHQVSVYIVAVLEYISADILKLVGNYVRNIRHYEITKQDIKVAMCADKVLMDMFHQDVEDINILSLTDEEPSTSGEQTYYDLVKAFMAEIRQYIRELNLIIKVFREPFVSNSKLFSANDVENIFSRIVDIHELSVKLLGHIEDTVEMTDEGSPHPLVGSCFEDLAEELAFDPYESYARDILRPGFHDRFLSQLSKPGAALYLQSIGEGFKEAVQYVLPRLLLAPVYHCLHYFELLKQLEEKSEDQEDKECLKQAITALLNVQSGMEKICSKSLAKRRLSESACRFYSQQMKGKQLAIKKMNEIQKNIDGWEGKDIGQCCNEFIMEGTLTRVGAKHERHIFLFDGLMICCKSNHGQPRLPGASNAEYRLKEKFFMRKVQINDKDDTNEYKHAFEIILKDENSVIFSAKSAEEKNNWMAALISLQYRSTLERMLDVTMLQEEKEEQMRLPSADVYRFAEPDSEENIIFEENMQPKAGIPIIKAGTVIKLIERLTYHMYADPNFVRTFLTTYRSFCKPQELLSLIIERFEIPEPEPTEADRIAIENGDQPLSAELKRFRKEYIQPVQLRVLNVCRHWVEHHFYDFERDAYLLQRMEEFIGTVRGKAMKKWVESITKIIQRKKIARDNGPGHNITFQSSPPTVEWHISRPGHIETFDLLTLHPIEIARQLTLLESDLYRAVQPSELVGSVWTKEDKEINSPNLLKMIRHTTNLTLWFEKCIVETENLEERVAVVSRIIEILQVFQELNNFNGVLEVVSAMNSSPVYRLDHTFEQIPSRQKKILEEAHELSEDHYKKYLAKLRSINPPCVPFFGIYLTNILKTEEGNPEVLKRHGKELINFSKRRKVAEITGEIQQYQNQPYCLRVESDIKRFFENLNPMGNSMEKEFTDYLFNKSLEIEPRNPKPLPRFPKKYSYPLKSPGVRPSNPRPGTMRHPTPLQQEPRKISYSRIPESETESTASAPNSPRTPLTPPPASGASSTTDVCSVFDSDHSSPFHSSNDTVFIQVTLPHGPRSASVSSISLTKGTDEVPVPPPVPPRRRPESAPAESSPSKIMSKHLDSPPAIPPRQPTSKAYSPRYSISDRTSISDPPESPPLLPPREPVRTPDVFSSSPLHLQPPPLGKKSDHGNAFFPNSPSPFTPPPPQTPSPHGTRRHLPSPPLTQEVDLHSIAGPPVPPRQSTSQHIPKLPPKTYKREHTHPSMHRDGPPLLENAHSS
Briefly: biochemical.

Structures can show the parent of a compound that is named as a salt.

With `C[C@@H](Nc1nnc(N2CCC3(CCCO3)CC2)c2cc(=O)n(C3(C)CC3)cc12)c1cccc(C(F)F)c1F` [Example 199, (R)-4-((1-(3-(difluoromethyl)-2-fluorophenyl)ethyl)amino)-6-(1-methylcyclopropyl)-1-(1-oxa-8-azaspiro[4.5]decan-8-yl)pyrido[3,4-d]pyridazin-7(6H)-one], it took 12.5 nM to reach half-maximal inhibition (IC50).
Then `C[C@@H](Nc1nnc(N2CCC3(CCOCC3)C2)c2cc(=O)n(C3(C)CC3)cc12)c1cccc(C(F)F)c1F` [Example 200, (R)-4-((1-(3-(difluoromethyl)-2-fluorophenyl)ethyl)amino)-6-(1-methylcyclopropyl)-1-(8-oxa-2-azaspiro[4.5]decan-2-yl)pyrido[3,4-d]pyridazin-7(6H)-one], with 4.2 nM; and `C[C@@H](Nc1nnc(N2CC3CC2CO3)c2cc(=O)n(C3(C)CC3)cc12)c1cccc(C(F)F)c1F` (stereo partly drawn) [Example 201, 1-(2-oxa-5-azabicyclo[2.2.1]heptan-5-yl)-4-(((R)-1-(3-(difluoromethyl)-2-fluorophenyl)ethyl)amino)-6-(1-methylcyclopropyl) pyrido[3,4-d]pyridazin-7(6H)-one], with 5.3 nM; and `C[C@@H](Nc1nnc(N2C3CCC2COC3)c2cc(=O)n(C3(C)CC3)cc12)c1cccc(C(F)F)c1F` [Example 202, 1-(3-oxa-8-azabicyclo[3.2.1]octan-8-yl)-4-(((R)-1-(3-(difluoromethyl)-2-fluorophenyl)ethyl)amino)-6-(1-methylcyclopropyl) pyrido[3,4-d]pyridazin-7(6H)-one], with 12.4 nM.
The same measure for `C[C@@H](Nc1nnc(N2CCN3CCCCC3C2)c2cc(=O)n(C3(C)CC3)cc12)c1cccc(C(F)F)c1F` (stereo partly drawn) [Example 203, 4-(((R)-1-(3-(difluoromethyl)-2-fluorophenyl)ethyl)amino)-6-(1-methylcyclopropyl)-1-(octahydro-2H-pyrido[1,2-a]pyrazin-2-yl)pyrido[3,4-d]pyridazin-7(6H)-one]: 3.8 nM; for `C[C@@H](Nc1nnc(N2CCC3(CC2)CNC(=O)C3)c2cc(=O)n(C3(C)CC3)cc12)c1cccc(C(F)F)c1F` [Example 204, (R)-4-((1-(3-(difluoromethyl)-2-fluorophenyl)ethyl)amino)-6-(1-methylcyclopropyl)-1-(3-oxo-2,8-diazaspiro[4.5]decan-8-yl)pyrido[3,4-d]pyridazin-7(6H)-one]: 8 nM.
Then `C[C@@H](Nc1nnc(N2CC3COCC3C2)c2cc(=O)n(C3(C)CC3)cc12)c1cccc(C(F)F)c1F` (stereo partly drawn) [Example 205, 4-(((R)-1-(3-(difluoromethyl)-2-fluorophenyl)ethyl)amino)-6-(1-methylcyclopropyl)-1-(tetrahydro-1H-furo[3,4-c]pyrrol-5(3H)-yl)pyrido[3,4-d]pyridazin-7(6H)-one], with 4.1 nM.
As to `C[C@@H](Nc1nnc(N2CC3CN(C)CC3C2)c2cc(=O)n(C3(C)CC3)cc12)c1cccc(C(F)F)c1F` (stereo partly drawn) [Example 206, 4-(((R)-1-(3-(difluoromethyl)-2-fluorophenyl)ethyl)amino)-6-(1-methylcyclopropyl)-1-(5-methylhexahydropyrrolo[3,4-c]pyrrol-2(1H)-yl)pyrido[3,4-d]pyridazin-7(6H)-one], the IC50 was 4.9 nM.
Consider `C[C@@H](Nc1nnc(N2CCC[C@H](CO)C2)c2cc(=O)n(C3(C)CC3)cc12)c1cccc2c1CCC2(F)F` [Example 207, 4-(((R)-1-(1,1-difluoro-2,3-dihydro-1H-inden-4-yl)ethyl)amino)-1-((S)-3-(hydroxymethyl)piperidin-1-yl)-6-(1-methylcyclopropyl) pyrido[3,4-d]pyridazin-7(6H)-one], for which it took 7.3 nM to reach half-maximal inhibition (IC50).
Consider `C[C@@H](Nc1nnc(N2CCN(C)CC2)c2cc(=O)n(C3(C)CC3)cc12)c1cccc2c1CCC2(F)F` [Example 208, (R)-4-((1-(1,1-difluoro-2,3-dihydro-1H-inden-4-yl)ethyl)amino)-6-(1-methylcyclopropyl)-1-(4-methylpiperazin-1-yl)pyrido[3,4-d]pyridazin-7(6H)-one], for which the half-inhibitory concentration (IC50) was found to be 4.5 nM.
Then `Cc1c([C@@H](C)Nc2nnc(N3CCN(C)CC3)c3cc(=O)n(C4(C)CC4)cc23)cccc1S(=O)(=O)C(F)F` [Example 209, (R)-4-((1-(3-((difluoromethyl)sulfonyl)-2-methylphenyl)ethyl)amino)-6-(1-methylcyclopropyl)-1-(4-methylpiperazin-1-yl)pyrido[3,4-d]pyridazin-7(6H)-one], with 4.4 nM; and `Cc1c(C(F)F)cccc1[C@@H](C)Nc1nnc(N2CCN(C)CC2)c2cc(=O)n(C3CC3)cc12` [Example 210, (R)-6-cyclopropyl-4-((1-(3-(difluoromethyl)-2-methylphenyl)ethyl)amino)-1-(4-methylpiperazin-1-yl)pyrido[3,4-d]pyridazin-7(6H)-one], with 2.7 nM.
As to `Cc1c(C(F)F)cccc1[C@@H](C)Nc1nnc(N2CCN(C(C)C)CC2)c2cc(=O)n(C3CC3)cc12` [Example 211, (R)-6-cyclopropyl-4-((1-(3-(difluoromethyl)-2-methylphenyl)ethyl)amino)-1-(4-isopropylpiperazin-1-yl)pyrido[3,4-d]pyridazin-7(6H)-one], the 50% inhibitory concentration (IC50) was 5.2 nM.
The same measure for `Cc1c(C(F)F)cccc1[C@@H](C)Nc1nnc(N2CCN(C3CC3)CC2)c2cc(=O)n(C3CC3)cc12` [Example 212, (R)-6-cyclopropyl-1-(4-cyclopropylpiperazin-1-yl)-4-((1-(3-(difluoromethyl)-2-methylphenyl)ethyl)amino)pyrido[3,4-d]pyridazin-7(6H)-one]: 11.9 nM; for `Cc1c(C(F)F)cccc1[C@@H](C)Nc1nnc(N2CCN(C)CC2)c2cc(=O)n(C3(C)CC3)cc12` [Example 213, (R)-4-((1-(3-(difluoromethyl)-2-methylphenyl)ethyl)amino)-6-(1-methylcyclopropyl)-1-(4-methylpiperazin-1-yl)pyrido[3,4-d]pyridazin-7(6H)-one formate]: 6.2 nM.
The same measure for `C[C@@H](Nc1nnc(N2CCN(C)CC2)c2cc(=O)n(C3(C)CC3)cc12)c1cccc(S(F)(F)(F)(F)F)c1` [Example 214, (R)-6-(1-methylcyclopropyl)-1-(4-methylpiperazin-1-yl)-4-((1-(3-(pentafluoro-λ^6-sulfaneyl)phenyl)ethyl)amino)pyrido[3,4-d]pyridazin-7(6H)-one formate]: 5 nM.
The same measure for `Cc1c(C#N)cccc1[C@@H](C)Nc1nnc(N2CCN(C(C)C)CC2)c2cc(=O)n(C3CC3)cc12` [Example 215, (R)-3-(1-((6-cyclopropyl-1-(4-isopropylpiperazin-1-yl)-7-oxo-6,7-dihydropyrido[3,4-d]pyridazin-4-yl)amino)ethyl)-2-methylbenzonitrile]: 8.6 nM.
With `C[C@@H](Nc1nnc(N2CCN(C3CC3)CC2)c2cc(=O)n(C3(C)CC3)cc12)c1cccc(C(F)F)c1F` [Example 218, (R)-1-(4-cyclopropylpiperazin-1-yl)-4-((1-(3-(difluoromethyl)-2-fluorophenyl)ethyl)amino)-6-(1-methylcyclopropyl) pyrido[3,4-d]pyridazin-7(6H)-one], it took 6 nM to reach half-maximal inhibition (IC50).
Then `C[C@@H](Nc1nnc(N2CCN(C)CC2)c2cc(=O)n(C3CCN(C)CC3)cc12)c1cccc(C(F)F)c1F` [Example 223, (R)-4-((1-(3-(difluoromethyl)-2-fluorophenyl)ethyl)amino)-1-(4-methylpiperazin-1-yl)-6-(1-methylpiperidin-4-yl)pyrido[3,4-d]pyridazin-7(6H)-one], with 5.4 nM.
Then `CCN1CCN(c2nnc(N[C@H](C)c3cccc(C#N)c3C)c3cn(C4CC4)c(=O)cc23)CC1` [Example 224, (R)-3-(1-((6-cyclopropyl-1-(4-ethylpiperazin-1-yl)-7-oxo-6,7-dihydropyrido[3,4-d]pyridazin-4-yl)amino)ethyl)-2-methylbenzonitrile], with 8.4 nM; and `C[C@@H](Nc1nnc(N(C)C2CC2)c2cc(=O)n(C3(C)CC3)cc12)c1cccc(C(F)F)c1F` [Example 225, (R)-1-(cyclopropyl(methyl)amino)-4-((1-(3-(difluoromethyl)-2-fluorophenyl)ethyl)amino)-6-(1-methylcyclopropyl) pyrido[3,4-d]pyridazin-7(6H)-one], with 7.6 nM.

A word on the IC50: it is the concentration at which inhibition is half-maximal. High values mean weaker potency, low ones greater potency.

These data come from patent publication EP4722213A1, “NITROGEN-CONTAINING FUNCTIONAL GROUP-SUBSTITUTED PYRIDAZINOPYRIDONE DERIVATIVE AND USE THEREOF” (Sichuan Huiyu Pharmaceutical Co., Ltd., priority 2023, dated 2024).
